This note sets out measurements from patent publication US20260240869A1, “ANTIPSEUDOMONAL FUSIDIC ACID COMPOUNDS” (priority 2022, published 2026).

SMILES strings stand for the structures. ≈ marks a conversion by molar mass, not a printed value. Read-outs that look alike come from different tables or passages of the source.

In one data set the test system is E. coli MG1655. Nature of the data set: MIC, E. coli MG1655. It is filed as cell-based. The following applies: Escherichia coli. On the procedure: (§1) Antimicrobial Susceptibility Tests. Susceptibility testing was performed in biological triplicate, using the microdilution broth method as outlined by the Clinical and Laboratory Standards Institute. Bacteria were cultured with cation-adjusted Meuller-Hinton broth (Sigma-Aldrich; catalogue number: 90922) or Luria-Bertani (LB) broth (Lennox) in round-bottom 96-well plates (Corning; catalogue number: 3788).

The test system of another data set is S. aureus ATCC 29213. The data set is described as follows: MIC, S. aureus ATCC 29213. The format is cell-based. The following applies: Staphylococcus aureus. The procedure:
as §1

Data set [1] in a line: Hydrolysis of prodrug in CAMH. The format is physicochemical. Conditions: In CAMH at 37° C. The text has this:
As a result, amidoxime prodrug versions containing variable amine linkers were designed (Table 8).

The test system of the next data set is P. aeruginosa PA14. The data set is described as follows: MIC, P. aeruginosa PA14. The format is cell-based, Pseudomonas aeruginosa. The following applies: Pseudomonas aeruginosa. On the procedure: as §1
Another data set concerns P. aeruginosa PAO1. The data set is described as follows: LC-MS/MS whole-cell accumulation assay, P. aeruginosa PAO1. The following applies: for PA Accumulation (FA): P. aeruginosa PAO1, accumulation of FA reported (Table 8). It is filed as cell-based, Pseudomonas aeruginosa. The procedure: Accumulation Assay. The accumulation assay was performed in triplicate in batches of ten samples, with each batch containing tetracycline or ciprofloxacin as a positive control. P. aeruginosa PAO1, PAO1 A6, PA14, PA14 A40, and PA1280, and E. coli MG1655 were used in these experiments. For each replicate, 2.5 mL (E. coli) or 5 mL (P. aeruginosa) of an overnight culture was diluted into 250 mL of fresh Luria-Bertani broth (Lennox) or Tryptic Soy Broth (TSB) and grown at 37° C. with shaking to an optical density (OD600) of 0.55-0.60. The bacteria were pelleted at 3220 r.c.f. for 10 min at 4° C., and the supernatant was discarded. The pellets were resuspended in 40 mL of phosphate buffered saline (PBS) and pelleted as before, and the supernatant was discarded. The pellets were resuspended in 8.8 mL of fresh PBS and aliquoted into ten, 1.5 mL Eppendorf tubes (875 μL each). The number of colony-forming units (CFUs) was determined by a calibration curve. The samples were equilibrated at 37° C. with shaking for 5 min; compound was added (final concentration=50 μM), and then the samples were incubated at 37° C. with shaking for either 10 min. These time points were short enough to minimize metabolic and growth changes (no changes in OD600 or CFU count observed). After incubation, 800 μL of the cultures was carefully layered on 700 μL of silicone oil (9:1 AR20/Sigma High Temperature, cooled to −78° C.). Bacteria were pelleted through the oil by centrifuging at 13 000 r.c.f. for 2 min at room temperature (with the supernatant remaining above the oil); the supernatant and oil were then removed by pipetting. To lyse the samples, each pellet was dissolved in […] of water, and then, they were subjected to three (E. coli) or four (P. aeruginosa) freeze-thaw cycles of 3 min in liquid nitrogen followed by 3 min in a water bath at 65° C. P. aeruginosa samples were then treated with 50 µM DNase and RNase and incubated at 37° C. for 15 minutes. The lysates were pelleted at 13 000 r.c.f. for 2 min at room temperature, and the supernatant was collected ([…]). The debris was resuspended in 100 μL of methanol and pelleted as before. The supernatants were removed and combined with the previous supernatants collected. Finally, the remaining debris was removed by centrifuging at 20 000 r.c.f. for 10 min at room temperature. Supernatants were analyzed by LC-MS/MS.
Samples were analyzed with the 5500 QTRAP LC/MS/MS system (AB Sciex) with a 1200 series HPLC system (Agilent Technologies) including a degasser, an autosampler, and a binary pump. Liquid chromatography separation was performed on an Agilent SB-Aq column (4.6×50 mm, 5 μm) (Agilent Technologies) with mobile phase A (0.1% formic acid in water) and mobile phase B (0.1% formic acid in acetonitrile). The flow rate was 0.3 mL/min. The linear gradient was as follows: 0-3 min, 100% mobile phase A; 10-15 min, 2% mobile phase A; 15.5-21 min, 100% mobile phase A. The autosampler was set at 5° C. The injection volume was 15 μL. Mass spectra were acquired with both positive electrospray ionization at the ion spray voltage of 5500 V and negative electrospray ionization at the ion spray voltage of −4500 V. The source temperature was 450° C. The curtain gas, ion source gas 1, and ion source gas 2 were 33, 50, and 65, respectively. Multiple reaction monitoring was used to quantify the metabolites. Power analysis was not used to determine the number of replicates. Error bars represent the standard error of the mean of three biological replicates. The statistical significance of the accumulation was determined using a two sample Welch's t test (one-tailed test, assuming unequal variance) relative to the negative controls. All compounds evaluated in the biological assays were >95% pure.
MBN assay. Assays measuring permeabilization by polymyxin B nonapeptide (PMBN) were performed as above, with the addition of 8 μg/mL PMBN immediately before the compound of interest was added.

Data set [2] concerns hyperporinated P. aeruginosa A6 efflux deficient strain (PAO1 pore-A6). Nature of the data set: microbe, parasite or virus in culture. It is filed as cell-based. The following applies: Pseudomonas aeruginosa, PAO1, read-out: MIC against PAO1 pore-A6. On the procedure:
as §1

Take `CC(=O)O[C@H]1C[C@@]2(C)[C@@H](C[C@@H](O)[C@H]3[C@@]4(C)CC[C@@H](O)[C@@H](C)[C@@H]4CC[C@@]32C)/C1=C(\CCC=C(C)C)C(=O)O/N=C(\N)CNCCCNCCCNCCCN` [FA prodrug, (3R, 4S,5S,8S,9S,10S,11R,13R,14S,16S,Z)-17-((Z)-1,14-diamino-22-methyl-17-oxo-16-oxa-4,8,12,15-tetraazatricosa-14,21-dien-18-ylidene)-3,11-dihydroxy-4,8,10,14-tetramethylhexadecahydro-1H-cyclopenta[a]phenanthren-16-yl acetate]: the MIC was 4 µg/mL in the data set on E. coli MG1655 (MG1655, read-out: E. coli MG1655 MIC); 4 µg/mL with E. coli MG1655 (MG1655, read-out: MIC E. coli MG1655); 1 µg/mL in the data set on S. aureus ATCC 29213 (ATCC29213, read-out: MIC S. aureus ATCC 29213); 8 µg/mL with P. aeruginosa PA14 (PA14). In addition, the “period of hydrolysis to fusidic acid” value in data set [1] turned out to be 48 h. Further, in the data set on P. aeruginosa PAO1, the “PA Accumulation (FA)” value stood at 3396 ± 122 nmol/1012 CFUs.

With `CC(=O)O[C@H]1C[C@@]2(C)[C@@H](C[C@@H](O)[C@H]3[C@@]4(C)CC[C@@H](O)[C@@H](C)[C@@H]4CC[C@@]32C)/C1=C(\CCC=C(C)C)C(=O)O` [FA, Fusidic acid], the MIC in the data set with E. coli MG1655 (MG1655, CLSI (Table 8), read-out: E. coli MG1655 MIC) was 512 µg/mL (≈ 991 µM); in the data set on E. coli MG1655 (MG1655, Table 9, read-out: MIC E. coli MG1655) it was 512 µg/mL (≈ 991 µM); in the data set with S. aureus ATCC 29213 (ATCC29213, Table 9, read-out: MIC S. aureus ATCC 29213), 0.125 µg/mL (≈ 0.242 µM); in data set [2], 4 µg/mL (≈ 7.74 µM); in the data set on P. aeruginosa PA14 (Reference strain PA14 (Table 11), read-out: MIC), more than 1020 µg/mL. The “accumulation in PAO1 (in words)” value with P. aeruginosa PAO1 (FIG. 1a / FIG. 5) was “does not accumulate”. Further, the “PA Accumulation (FA)” value with P. aeruginosa PAO1 amounted to 80 ± 7 nmol/1012 CFUs. Moreover, the “change of accumulation upon membrane permeabilization” value in the data set with P. aeruginosa PAO1 (treatment with PMBN, FIG. 1b) is on record as “significant increase in accumulation”.
